Values after ≈ are worked out from the molar mass of the structure shown.
Assays:
[1] = test system: Aspergillus fumigatus (ATCC 13073); assay: In vivo anti-fungal activity: CFU in lung and galactomannan in BALF and serum; parameters: species or system mice; settings: for ID50, GM in BALF / ID50, GM in serum / ID50, Lung Fungal Load: Prophylactic Regimen
Description: (§1) Aspergillus fumigatus (ATCC 13073 [strain: NIH 5233], American Type Culture Collection, Manassas, Va., USA) was grown on Malt agar (Nissui Pharmaceutical, Tokyo, Japan) plates for 6-7 days at RT (24±1° C.). Spores were aseptically dislodged from the agar plates and suspended in sterile distilled water with 0.05% Tween 80 and 0.1% agar. On the day of infection, spore counts were assessed by haemocytometer and the inoculum was adjusted to obtain a concentration of 1.67×10^8 spores mL^−1 of physiological saline.
(§2) On day 0, animals were infected with the spore suspension (35 μL intra-nasally).
Test compounds were administered intra-nasally ([…]) once daily, 30 min before infection on day 0 and then on days 1, 2 and 3 (representing prophylactic treatment) or on days 1, 2 and 3 only (representing therapeutic treatment). For extended prophylactic treatment, test compounds (35 μL of a suspension of 0.0032 or 0.016 mg/mL in physiological saline) were administered intra-nasally once daily for seven days; then 30 min before infection on day 0, and thereafter, either on days 1, 2 and 3 after infection, or on day 0 only. The effects of these treatment paradigms were compared with those obtained when treatment was restricted to one day and 30 min before inoculation and then on days 1, 2 and 3 post infection; or reduced still further to one day and 30 min before infection only.
(§3) Six hours after the last dose, animals were anesthetised, the trachea was cannulated and BALF was collected. The total number of alveolar cells was determined using a haemocytometer, and the numbers of alveolar macrophages and neutrophils were determined by FACS analysis (EPICS® ALTRA II, Beckman Coulter, Inc., Fullerton, Calif., USA) using anti-mouse MOMA2-FITC (macrophage) or anti-mouse 7/4 (neutrophil), respectively, as previously reported (Kimura et al., 2013). The levels of IFN-γ and IL-17 in BALF, and IL-6 and TNFα in serum were determined using Quantikine® mouse IFN-γ, IL-17, IL-6 or TNF-α ELISA kit (R&D systems, Inc., Minneapolis, Minn., USA) respectively. MDA, an oxidative stress marker, was assayed using OxiSelect® TBARS Assay Kits (MDA Quantitation; Cell Biolabs Inc, San Diego, Calif., USA). Aspergillus GM in serum was determination using Platelia GM-EIA kits (Bio-Rad Laboratories, Redmond, Wash., USA). Cut-off index was calculated by the formula: Cut-off index=OD in sample/OD in cut-off control provided in kit. For tissue fungal load assays, 100 mg of lung tissue was removed aseptically and homogenized in 0.2 mL of 0.1% agar in sterile distilled water. Serially diluted lung homogenates were plated on Malt agar plates (50 μL/plate), and incubated at 24±1° C. for 72 to 96 h. The colonies of A. fumigatus on each plate was counted and the fungal titre presented as CFU per gram of lung tissue.

[2] = test system: BEAS2B cells; assay: Cell viability: resazurin assay; type: cell-based, human; settings: concentrations up to, at least, 10 μM
Description: BEAS2B cells were seeded in 384-well plates (100 μL; 3000/well/; BD Falcon, Catalogue No 353962) in RPMI-LHC8 (RPMI-1640 and LHC8 media combined in equal proportions) one day before experimentation. For cell-free control wells, RPMI-LHC8 (100 μL) was added. Test compounds (0.5 μL of a DMSO solution) were added to give a final DMSO concentration of 0.5% using an Integra VIAFLO 96 (Integra, Zizers, Switzerland). BEAS2B cells were incubated with each test compound for 1 day (37° C./5% CO2 in RPMI-LHC8). After addition of resazurin stock solution (5 μL, 0.04%) the plates were incubated for a further 4 hr (37° C./5% CO2). The fluorescence of each well at 545 nm (excitation) and 590 nm (emission) was determined using a multi-scanner (Clariostar: BMG Labtech). The percentage loss of cell viability was calculated for each well relative to vehicle (0.5% DMSO) treatment. Where appropriate, a CC50 value was calculated from the concentration-response curve generated from the concentration-response curve for each test compound.

[3] = test system: Aspergillus fumigatus (ATCC 13073); assay: Extended prophylactic dosing: CFU in lung and GM in BALF and serum; type: in vivo, mice
Description: as §1, §2
Test compounds were administered intra-nasally (35 μL of a suspension of 0.08-2.00 mg/mL in physiological saline) once daily, 30 min before infection on day 0 and then on days 1, 2 and 3 (representing prophylactic treatment) or on days 1, 2 and 3 only (representing therapeutic treatment). For extended prophylactic treatment, test compounds (35 μL of a suspension of 0.0032 or 0.016 mg/mL in physiological saline) were administered intra-nasally once daily for seven days; then 30 min before infection on day 0, and thereafter, either on days 1, 2 and 3 after infection, or on day 0 only. The effects of these treatment paradigms were compared with those obtained when treatment was restricted to one day and 30 min before inoculation and then on days 1, 2 and 3 post infection; or reduced still further to one day and 30 min before infection only.
as §3

[4] = Prophylactic Treatment, 0.08 mg/mL intra-nasally
[5] = Prophylactic Treatment, 0.4 mg/mL intra-nasally
[6] = Prophylactic Treatment, 2 mg/mL intra-nasally
[7] = Therapeutic Treatment, 0.4 mg/mL intra-nasally
[8] = Therapeutic Treatment, 2 mg/mL intra-nasally
[9] = Therapeutic Treatment, 10 mg/mL intra-nasally
[10] = days dosed −1, 0, 16 μg/mL intra-nasally
[11] = days dosed −1 to +3, 3.2 μg/mL intra-nasally
[12] = days dosed −1 to +3, 16 μg/mL intra-nasally
[13] = days dosed −7 to 0, 16 μg/mL intra-nasally
[14] = days dosed −7 to +3, 3.2 μg/mL intra-nasally
[15] = days dosed −7 to +3, 16 μg/mL intra-nasally

## CC[C@@H]([C@H](C)O)n1ncn(-c2ccc(N3CCN(c4ccc(OC[C@@H]5CO[C@@](Cn6cncn6)(c6ccc(F)cc6F)C5)cc4)CC3)cc2)c1=O [Posaconazole]
[1]
  ID50, GM in BALF: 1.3 mg/mL (≈ 1860 µM)
  ID50, GM in serum: 0.47 mg/mL (≈ 671 µM)
  ID50, Lung Fungal Load: 0.24 mg/mL (≈ 342 µM)

## Cc1cc(N2CCN(c3ccc(C(=O)Nc4ccc(F)cc4)cc3)CC2)ccc1OC[C@@H]1CO[C@@](Cn2cncn2)(c2ccc(F)cc2F)C1 [Compound (I), 4-(4-(4-(((3R,5R)-5-((1H-1,2,4-triazol-1-yl)methyl)-5-(2,4-difluorophenyl)tetrahydrofuran-3-yl)methoxy)-3-methylphenyl)piperazin-1-yl)-N-(4-fluorophenyl)benzamide]
[2]
  effect on the viability of BEAS2B bronchial epithelial cells: no or little effect
[1]
  ID50, GM in BALF: <0.08 mg/mL
  ID50, GM in serum: <0.08 mg/mL
  ID50, Lung Fungal Load: 0.086 mg/mL (≈ 126 µM)
[1]; [4]
  CFU in lung: 15.2 ± 13.7 /mg of lung
  CFU in lung, % inhibition: 46%
  GM in BALF: 0.70 ± 0.39 COI
  GM in BALF, % inhibition: 85%
  GM in serum: 0.81 ± 0.52 COI
  GM in serum, % inhibition: 85%
[1]; [5]
  CFU in lung: 2.1 ± 1.6 /mg of lung
  CFU in lung, % inhibition: 93%
  GM in BALF: 0.37 ± 0.46 COI
  GM in BALF, % inhibition: 92%
  GM in serum: 0.24 ± 0.18 COI
  GM in serum, % inhibition: 95%
[1]; [6]
  CFU in lung: 0.8 ± 0.7 /mg of lung
  CFU in lung, % inhibition: 97%
  GM in BALF: 0.13 ± 0.02 COI
  GM in BALF, % inhibition: 97%
  GM in serum: 0.18 ± 0.07 COI
  GM in serum, % inhibition: 97%
[1]; [7]
  CFU in lung: 3.8 ± 1.0 /mg of lung
  CFU in lung, % inhibition: 87%
  GM in BALF: 0.24 ± 0.06 COI
  GM in BALF, % inhibition: 95%
  GM in serum: 0.29 ± 0.11 COI
  GM in serum, % inhibition: 95%
[1]; [8]
  CFU in lung: 1.9 ± 1.7 /mg of lung
  CFU in lung, % inhibition: 93%
  GM in BALF: 0.22 ± 0.14 COI
  GM in BALF, % inhibition: 95%
  GM in serum: 0.25 ± 0.19 COI
  GM in serum, % inhibition: 95%
[1]; [9]
  CFU in lung: 0.5 ± 0.3 /mg of lung
  CFU in lung, % inhibition: 98%
  GM in BALF: 0.11 ± 0.05 COI
  GM in BALF, % inhibition: 98%
  GM in serum: 0.24 ± 0.11 COI
  GM in serum, % inhibition: 95%
[3]; [10]
  CFU in lung: 13.1 ± 2.6 /mg of lung
  CFU in lung, % inhibition: 62%
  GM in BALF: 4.5 ± 0.50 COI
  GM in BALF, % inhibition: 12%
  GM in serum: 4.0 ± 0.88 COI
  GM in serum, % inhibition: 7%
[3]; [11]
  CFU in lung: 9.5 ± 3.3 /mg of lung
  CFU in lung, % inhibition: 73%
  GM in BALF: 2.8 ± 0.71 COI
  GM in BALF, % inhibition: 45%
  GM in serum: 2.2 ± 0.69 COI
  GM in serum, % inhibition: 49%
[3]; [12]
  CFU in lung: 6.1 ± 2.8 /mg of lung
  CFU in lung, % inhibition: 82%
  GM in BALF: 2.2 ± 0.61 COI
  GM in BALF, % inhibition: 57%
  GM in serum: 1.6 ± 0.41 COI
  GM in serum, % inhibition: 63%
[3]; [13]
  CFU in lung: 6.7 ± 1.7 /mg of lung
  CFU in lung, % inhibition: 81%
  GM in BALF: 2.3 ± 0.52 COI
  GM in BALF, % inhibition: 55%
  GM in serum: 1.7 ± 0.59 COI
  GM in serum, % inhibition: 60%
[3]; [14]
  CFU in lung: 8.3 ± 2.0 /mg of lung
  CFU in lung, % inhibition: 76%
  GM in BALF: 2.6 ± 0.36 COI
  GM in BALF, % inhibition: 49%
  GM in serum: 1.8 ± 0.43 COI
  GM in serum, % inhibition: 58%
[3]; [15]
  CFU in lung: 5.0 ± 2.3 /mg of lung
  CFU in lung, % inhibition: 86%
  GM in BALF: 1.7 ± 0.39 COI
  GM in BALF, % inhibition: 67%
  GM in serum: 1.4 ± 0.20 COI
  GM in serum, % inhibition: 67%

— patent US20210238169A1, “PROCESS FOR PREPARING A COMPOUND OF FORMULA (XIII)” (PULMOCIDE LIMITED, priority 2014, published 2021)
